Data: article PMC8286840, “Identifying SARS-CoV-2 antiviral compounds by screening for small molecule inhibitors of Nsp3 papain-like protease” (Biochemical Journal, 2021)
Counter-ions that a name gives are not always drawn. Like-named read-outs stand apart in the source and are kept apart here. Where a SMILES comes first, the peptide text is derived from it.

Tests used:
[1] = target: T1, SARS-CoV-2 PLpro (nsp3 1564–1878) (Severe acute respiratory syndrome coronavirus 2, UniProt P0DTD1); experiment: biochemical; design: FRET-quenched peptide (Pro3) cleavage by PLpro, 10 min pre-incubation, slope over 20 min, normalised to no-compound control; settings: read-out: % of control remaining
[2] = target: T1, SARS-CoV-2 PLpro (nsp3 1564–1878); experiment: biochemical; design: FRET-quenched peptide (Pro3) cleavage by PLpro, 10 min pre-incubation, slope over 20 min, normalised to no-compound control; settings: read-out: % of control remaining; remark: listed apart in the source

CN1[C@@H]2CCC[C@H]1C[C@@H](NC(=O)c1nn(C)c3ccccc13)C2 [Granisetron HCl]
remaining activity at 3.75 µM ([1]; Well no.=5189, high concentration screen): 97.5% | remaining activity at 1.25 µM ([2]; Well no.=5189, low concentration screen): 99.3%

CN1[C@@H]2CCC[C@H]1C[C@@H](NC(=O)c1nn(C)c3ccccc13)C2 [Granisetron]
remaining activity at 3.75 µM ([1]; Well no.=1910, high concentration screen): 91.6% | remaining activity at 1.25 µM ([2]; Well no.=1910, low concentration screen): 93.3%

CCc1nc2c(C)nc(C)cc2n1-c1ccc(CCNC(=O)NS(=O)(=O)c2ccc(C)cc2)cc1 [Grapiprant]
remaining activity at 3.75 µM ([1]; Well no.=6998, high concentration screen): 95.9% | remaining activity at 1.25 µM ([2]; Well no.=6998, low concentration screen): 97.1%

Cn1c(-c2ccc3c(c2)OCO3)cc(=O)c2ccccc21 [Graveoline]
remaining activity at 3.75 µM ([1]; Well no.=3147, high concentration screen): 104% | remaining activity at 1.25 µM ([2]; Well no.=3147, low concentration screen): 102%

CC1(C)[C@@H](O)C[C@H]2[C@](C)(O)[C@@H]3CC[C@@H]4[C@@H](O)[C@@]3(C[C@@H](O)[C@@]21O)C[C@@]4(C)O [Grayanotoxin III]
remaining activity at 3.75 µM [1]: 104% | remaining activity at 1.25 µM [2]: 103%

COc1ccccc1O [Guaiacol]
remaining activity at 3.75 µM ([1]; Well no.=1626, high concentration screen): 98.8% | remaining activity at 1.25 µM ([2]; Well no.=1626, low concentration screen): 96.8%

COc1ccccc1OCC(O)CO (stereo not shown) [Guaifenesin]
remaining activity at 3.75 µM ([1]; Well no.=2180, high concentration screen): 100% | remaining activity at 1.25 µM ([2]; Well no.=2180, low concentration screen): 97.5%

N=C(N)N/N=C/c1c(Cl)cccc1Cl [Guanabenz (Acetate)]
remaining activity at 3.75 µM ([1]; Well no.=6652, high concentration screen): 100% | remaining activity at 1.25 µM ([2]; Well no.=6652, low concentration screen): 94.5%

N=C(N)N/N=C/c1c(Cl)cccc1Cl [Guanabenz acetate]
remaining activity at 3.75 µM ([1]; Well no.=604, high concentration screen): 96.2% | remaining activity at 1.25 µM ([2]; Well no.=604, low concentration screen): 96.6%

N=C(N)N/N=C/c1c(Cl)cccc1Cl [Guanabenz]
remaining activity at 3.75 µM ([1]; Well no.=1693, high concentration screen): 105% | remaining activity at 1.25 µM ([2]; Well no.=1693, low concentration screen): 105%

N=C(N)NC(=O)Cc1c(Cl)cccc1Cl [Guanfacine (hydrochloride)]
remaining activity at 3.75 µM ([1]; Well no.=6275, high concentration screen): 102% | remaining activity at 1.25 µM ([2]; Well no.=6275, low concentration screen): 101%

N=C(N)NC(=O)Cc1c(Cl)cccc1Cl [Guanfacine.HCl]
remaining activity at 3.75 µM ([1]; Well no.=1894, high concentration screen): 95.2% | remaining activity at 1.25 µM ([2]; Well no.=1894, low concentration screen): 95.7%

NC(N)=NCCSSCCN=C(N)N [Guanidinoethyl disulfide dihydrobromide]
remaining activity at 3.75 µM ([1]; Well no.=429, high concentration screen): 88.8% | remaining activity at 1.25 µM ([2]; Well no.=429, low concentration screen): 89.1%

NC(N)=N[C@@H](CC(=O)O)C(=O)O [Guanidinosuccinic acid]
remaining activity at 3.75 µM ([1]; Well no.=8176, high concentration screen): 101% | remaining activity at 1.25 µM ([2]; Well no.=8176, low concentration screen): 109%

NC(N)=Nc1ccc2[nH]c3c(c2c1)C[C@@]1(O)[C@H]2Cc4ccc(O)c5c4[C@@]1(CCN2CC1CC1)[C@H]3O5 [Guanidinyl-naltrindole di-trifluoroacetate]
remaining activity at 3.75 µM ([1]; Well no.=763, high concentration screen): 99.9% | remaining activity at 1.25 µM ([2]; Well no.=763, low concentration screen): 96%

Nc1nc2c(ncn2[C@@H]2O[C@H](COP(=O)(O)OP(=O)(O)O)[C@@H](O)[C@H]2O)c(=O)[nH]1 [Guanosine 5'-diphosphate disodium salt]
remaining activity at 3.75 µM ([1]; Well no.=8939, high concentration screen): 96.6% | remaining activity at 1.25 µM ([2]; Well no.=8939, low concentration screen): 98.9%

Nc1nc2c(ncn2[C@@H]2O[C@H](CO)[C@@H](O)[C@H]2O)c(=O)[nH]1 [Guanosine]
remaining activity at 3.75 µM ([1]; Well no.=5248, high concentration screen): 98% | remaining activity at 3.75 µM ([1]; Well no.=6833, high concentration screen): 99.5% | remaining activity at 3.75 µM ([1]; Well no.=7708, high concentration screen): 91.8% | remaining activity at 1.25 µM ([2]; Well no.=5248, low concentration screen): 96.5% | remaining activity at 1.25 µM ([2]; Well no.=6833, low concentration screen): 97.7% | remaining activity at 1.25 µM ([2]; Well no.=7708, low concentration screen): 94.4%

CSc1nc2ccc3nc(NC(=O)C(c4ccccc4)c4ccccc4)sc3c2s1 [Gue1654]
remaining activity at 3.75 µM ([1]; Well no.=5404, high concentration screen): 92.4% | remaining activity at 1.25 µM ([2]; Well no.=5404, low concentration screen): 90.4%

C/C=C1\C(=O)C[C@H]2[C@@H]3CCC4=CC(=O)CC[C@]4(C)[C@H]3CC[C@]12C [Guggulsterone]
remaining activity at 3.75 µM ([1]; Well no.=6918, high concentration screen): 99.7% | remaining activity at 1.25 µM ([2]; Well no.=6918, low concentration screen): 103%

O=C(O)C1=CCCNC1 [Guvacine hydrochloride]
remaining activity at 3.75 µM ([1]; Well no.=460, high concentration screen): 99.6% | remaining activity at 1.25 µM ([2]; Well no.=460, low concentration screen): 99.2%

O=S(=O)(NCCNC/C=C/c1ccc(Br)cc1)c1cccc2cnccc12 [H 89 dihydrochloride - N-[2-[[3-(4-Bromophenyl)-2-propenyl]amino]ethyl]-5-isoquinolinesulfonamide dihydrochloride]
remaining activity at 3.75 µM ([1]; Well no.=2636, high concentration screen): 99.1% | remaining activity at 1.25 µM ([2]; Well no.=2636, low concentration screen): 95.6%

CC1CNCCN1S(=O)(=O)c1cccc2cnccc12 (stereo not shown) [H-7 dihydrochloride]
remaining activity at 3.75 µM ([1]; Well no.=570, high concentration screen): 95.4% | remaining activity at 1.25 µM ([2]; Well no.=570, low concentration screen): 95.5%

CNCCNS(=O)(=O)c1cccc2cnccc12 [H-8 dihydrochloride]
remaining activity at 3.75 µM ([1]; Well no.=893, high concentration screen): 99.3% | remaining activity at 1.25 µM ([2]; Well no.=893, low concentration screen): 103%

CNCCNS(=O)(=O)c1cccc2cnccc12 [H-8, Dihydrochloride]
remaining activity at 3.75 µM ([1]; Well no.=2431, high concentration screen): 105% | remaining activity at 1.25 µM ([2]; Well no.=2431, low concentration screen): 106%

NCCNS(=O)(=O)c1cccc2cnccc12 [H-9 dihydrochloride]
remaining activity at 3.75 µM ([1]; Well no.=340, high concentration screen): 100% | remaining activity at 1.25 µM ([2]; Well no.=340, low concentration screen): 96.1%

O=S(=O)(NCCNC/C=C/c1ccc(Br)cc1)c1cccc2cnccc12 [H-89, Dihydrochloride]
remaining activity at 3.75 µM ([1]; Well no.=2610, high concentration screen): 86.3% | remaining activity at 1.25 µM ([2]; Well no.=2610, low concentration screen): 88.8%

CCc1ccc(NC(=O)Nc2c[nH]c3ccccc23)cc1 [H-151]
remaining activity at 3.75 µM ([1]; Well no.=8555, high concentration screen): 103% | remaining activity at 1.25 µM ([2]; Well no.=8555, low concentration screen): 102%

NCCCC[C@H](NC(=O)[C@H](Cc1c[nH]c2ccccc12)NC(=O)[C@@H](N)CCCCN)C(=O)O [H-Lys-Trp-Lys-OH] (H-Lys-Trp-Lys-OH)
remaining activity at 3.75 µM ([1]; Well no.=8180, high concentration screen): 103% | remaining activity at 1.25 µM ([2]; Well no.=8180, low concentration screen): 103%

N[C@@H](Cc1ccccc1)C(=O)N[C@@H](Cc1ccccc1)C(=O)O [H-Phe-Phe-OH] (H-Phe-Phe-OH)
remaining activity at 3.75 µM ([1]; Well no.=8742, high concentration screen): 104% | remaining activity at 1.25 µM ([2]; Well no.=8742, low concentration screen): 96.6%

N[C@@H](Cc1ccc(O)c(I)c1)C(=O)O [H-Tyr(3-I)-OH]
remaining activity at 3.75 µM ([1]; Well no.=7019, high concentration screen): 99.6% | remaining activity at 1.25 µM ([2]; Well no.=7019, low concentration screen): 99.7%

CC(C)[C@H](N)C(=O)N1CCC[C@H]1C(=O)N1CCC[C@H]1C(=O)O [H-Val-Pro-Pro-OH (TFA)]
remaining activity at 3.75 µM ([1]; Well no.=7546, high concentration screen): 100% | remaining activity at 1.25 µM ([2]; Well no.=7546, low concentration screen): 100%

CCOC(=O)C1=C(N)Oc2ccc(Br)cc2[C@H]1[C@H](C#N)C(=O)OCC [HA14-1]
remaining activity at 3.75 µM ([1]; Well no.=5007, high concentration screen): 101% | remaining activity at 3.75 µM ([1]; Well no.=6296, high concentration screen): 102% | remaining activity at 1.25 µM ([2]; Well no.=5007, low concentration screen): 105% | remaining activity at 1.25 µM ([2]; Well no.=6296, low concentration screen): 101%

O=S(=O)(c1cccc2cnccc12)N1CCCNCC1 [HA1077]
remaining activity at 3.75 µM ([1]; Well no.=1669, high concentration screen): 106% | remaining activity at 1.25 µM ([2]; Well no.=1669, low concentration screen): 106%

NC(N)=NCCNS(=O)(=O)c1cccc2cnccc12 [HA 1004, Dihydrochloride]
remaining activity at 3.75 µM ([1]; Well no.=2433, high concentration screen): 108% | remaining activity at 1.25 µM ([2]; Well no.=2433, low concentration screen): 111%

O=S(=O)(c1cccc2cnccc12)N1CCCNCC1 [HA 1077, Dihydrochloride Fasudil]
remaining activity at 3.75 µM ([1]; Well no.=2646, high concentration screen): 100% | remaining activity at 1.25 µM ([2]; Well no.=2646, low concentration screen): 94.1%
